Experimental data as given in patent publication US12269816B2, “Benzothiophene compound, preparation method therefor and use thereof” (SICHUAN KELUN-BIOTECH BIOPHARMACEUTICAL CO., LTD., priority 2019, dated 2025).

Columns and labels:
Format in all cases: cell-based
[1] = system: STING pathway cytokine hIFN-β in human THP-1 cells; assay: ELISA of STING pathway cytokine hIFN-β expression in human THP-1 cells; conditions: for EC50: hIFN-β expression; for EC50 / Emax: 8 hours, ELISA; for Emax: highest expression of hIFN-β; for agonistic effect on the expression of hIFN-β: result in words
Description: In this experiment, the expression of STING signal pathway cytokine hIFN-β was detected in THP1 cells (Nanjing Cobioer) by the ELISA method, so as to evaluate the agonistic effect of the compounds to be tested on the expression of STING pathway cytokine hIFN-β at the cellular level.
THP1 cells (Nanjing Cobioer) in the logarithmic phase were centrifuged, and resuspended in a cell culture solution to a density of 8×10^6 cells/ml. The cell suspension was inoculated into a 24-well cell culture plate (Corning) at 250 μL/well.
The mother liquor of the compound to be tested was diluted with a cell culture solution to obtain a 2× working concentration diluted solution (control compounds 1 and 2 were diluted at a 2-fold gradient: 200, 100, 50, 25, 12.5, 6.25, 3.125, 1.5625 and 0 μM; and compounds 4, 6, and 8 were diluted at a 3-fold gradient: 200, 66.67, 22.22, 7.41, 2.47, 0.82, 0.27, 0.091 and 0 μM). The 2× working concentration diluted solution of the compound was added into 24-well plate (250 μl of the culture solution containing 2% DMSO was added into the negative control well) at 250 μL/well. The culture plate was placed in a cell culture incubator, and incubated for 8 hours. After the cell incubation, the supernatant was collected by centrifugation at 300 g×5 min, and the hIFN-β content (pg/ml) in the cell culture supernatant was detected according to the operating instructions of the VeriKine Human […] ELISA kit from PBL (obtained by conversion of the […] absorbance-hIFN-β standard concentration standard curve and the OD450 nm absorbance value read by the microplate reader). […] was calculated through log(agonist) vs. response—Variable slope fitting by the Graphpad Prism software, and the experimental results are shown in Table 2.
In the table, EC50 refers to the concentration of a compound when the expression of hIFN-β generated by stimulation of the compound reaches half of Emax and Emax refers to the highest expression of hIFN-β generated by stimulation of the compound.

[2] = system: STING pathway cytokine mIFN-β in mouse Raw264.7 cells; assay: ELISA of STING pathway cytokine mIFN-β expression in mouse Raw264.7 cells; conditions: for Emax: highest expression of mIFN-β; for Emax / EC50: 6 h, ELISA; for EC50: mIFN-β expression; for agonistic effect on the expression of mIFN-β: result in words
Description: In this experiment, the expression of STING signal pathway cytokine mIFN-β was detected in Raw264.7 cells (Nanjing Cobioer) by the ELISA method, so as to evaluate the agonistic effect of the compound to be tested on the expression of STING pathway cytokine mIFN-β at the cellular level.
Raw264.7 cells (Nanjing Cobioer) in the logarithmic phase were centrifuged, and resuspended in a cell culture solution to a density of 1.6×10^6 cells/ml. The cell suspension was inoculated into a 24-well cell culture plate (Corning) at 250 μL/well. The mother liquor of the compound to be tested was gradiently diluted with a cell culture solution to obtain a 2× working concentration diluted solution (control compound 1 was diluted at a 3-fold gradient: 200, 66.67, 22.22, 7.41, 2.47, 0.82, 0.27 and 0 μM; control compound 2 was diluted at a 2-fold gradient: 200, 100, 50, 25, 12.5, 6.25, 3.125 and 0 μM; and compounds 4, 6 and 8 were diluted at a 4-fold gradient: 200, 50, 12.5, 3.13, 0.78, 0.20, 0.049 and 0 μM). The 2× working concentration diluted solution of the compound was added into a 24-well plate (250 μl of the culture solution containing 2% DMSO was added into the negative control well) at 250 μL/well. The culture plate was then placed in a cell incubator, and incubated for 6 h. After the cell incubation, the supernatant was collected by centrifugation at 300 g×5 min, and the mIFN-β content (pg/ml) in the cell culture supernatant was detected according to the operating instructions of the VeriKinem Mouse IFN Beta ELISA Kit from PBL (obtained by conversion of the OD450 nm absorbance-mIFN-β standard concentration standard curve and the OD450 nm absorbance value read by the microplate reader). EC50 was calculated through log(agonist) vs. response—Variable slope fitting by the Graphpad Prism software, and the experimental results are shown in Table 3.
In the table, EC50 refers to the concentration of a compound when the expression of mIFN-β generated by stimulation of the compound reaches half of Emax; and Emax refers to the highest expression of mIFN-β generated by stimulation of the compound.

[3] = system: STING and its downstream proteins TBK1 and IRF3 in Raw264.7 cells; assay: Western blotting of phosphorylation of STING signal pathway proteins in mouse Raw264.7 cells; conditions: 3 hours, protein blotting, FIGS. 6-7, result in words
Description: In this experiment, the changes in the phosphorylation levels of STING and its downstream proteins TBK1 (TANK-binding kinase 1) and IRF3 (interferon regulatory factor 3) were detected by protein blotting to evaluate the agonistic effect of the test compounds on the STING signal pathway at the cellular level.
The Raw264.7 cells in the logarithmic phase were centrifuged, and resuspended in a cell culture solution to a density of 1.6×10^6 cells/mL. The cell suspension was inoculated into a 6-well cell culture plate (Corning) at 1 mL/well. The compound to be tested was diluted with a cell culture solution to 2× working solution concentration (control compounds 1 and 2: 60 μM; compound 8: 0.6 μM, 6 μM, and 60 μM; compounds 2, 4 and 6: 6 μM, 20 μM, and 60 μM). 1 mL of the diluted solution of the compound was added into a 6-well plate (1 mL of the culture solution containing 2% DMSO was added into the negative control well). The plate was placed in a cell incubator, and incubated for 3 hours. After the incubation, the cells were collected by centrifugation, lysed with 60 μL cell lysis buffer (CST) for 30 minutes, and centrifuged at 12000 rpm for 15 minutes. The supernatant was collected to determine the protein concentration, and then an appropriate amount of 5× protein loading buffer was added. The mixture was heated at 95° C. for 10 minutes to prepare a protein electrophoresis sample. Finally, protein blotting was performed to detect the phosphorylation level of the corresponding protein. The primary antibodies used in the protein blotting were purchased from CST: STING (D2P2F) rabbit mAb, Phospho-STING (Ser365) rabbit mAb, Phospho-IRF3 (Ser396) (D601M) rabbit mAb, IRF3 (D83B9) rabbit mAb, TBK1/NAK (D1B4) rabbit mAb, Phospho-TBK1/NAK (Ser172) (D52C2) XPV rabbit mAb, GAPDH (D16H11) rabbit mAb; and the secondary antibody horseradish peroxidase-conjugated goat anti-rabbit IgG (H+L) was purchased from Zsgb-bio.

EC50 [1] [nM]	EC50 [2] [nM]	Structure (SMILES)	Emax [1] [pg/mL]	agonistic effect on the expression of hIFN-β [1]	Emax [2] [pg/mL]	agonistic effect on the expression of mIFN-β [2]	agonistic effect on the phosphorylation levels of STING, TBK1 and IRF3 [3]
1250	560	COc1cc2sc(C(=O)CCC(=O)O)cc2cc1OCCCOc1cc2cc(C(=O)N(C)CCC(=O)O)sc2cc1OC [Compound 8, 4-(5-(3-((2-((2-carboxyethyl)(methyl)carbamoyl)-6-methoxybenzo[b]thiophen-5-yl)oxy)propoxy)-6-methoxybenzo[b]thiophen-2-yl)-4-oxobutanoic Acid]	917.1	strong agonistic effect	1176.75	strong agonistic effect	strong agonistic effects
5570	3600	COc1cc2sc(C(=O)N(C)CCC(=O)O)cc2cc1OCCCOc1cc2sc(C(=O)CCC(=O)O)cc2cc1OC [Compound 4, 4-(6-(3-((2-((2-carboxyethyl)(methyl)carbamoyl)-6-methoxybenzo[b]thiophen-5-yl)oxy)propoxy)-5-methoxybenzo[b]thiophen-2-yl)-4-oxobutanoic acid]	908.0	strong agonistic effect	1082.21	strong agonistic effect	strong agonistic effects
1820	3800	COc1cc2sc(C(=O)CCC(=O)O)cc2cc1OCCCOc1cc2sc(C(=O)N(C)CCC(=O)O)cc2cc1OC [Compound 6, 4-(5-(3-((2-((2-carboxyethyl)(methyl)carbamoyl)-5-methoxybenzo[b]thiophen-6-yl)oxy)propoxy)-6-methoxybenzo[b]thiophen-2-yl)-4-oxobutanoic acid]	829.6	strong agonistic effect	1012.51	strong agonistic effect	strong agonistic effects
